Values quoted from earlier work in US20250255800A1, “DETERGENT COMPOSITIONS FOR WASHING URUSHIOL AND METHODS OF TREATING URUSHIOL INDUCED CONTACT DERMATITIS” (THE WILLIAM M. YARBROUGH FOUNDATION, priority 2020, published 2025).

Tests used:
aquatic organisms = settings: EPA statement / GHS Hazard Statement H411
[1] = in vitro and in vivo assays

| Substance | toxicity to aquatic life (aquatic organisms) | estrogenic properties [1] |
| --- | --- | --- |
| nonoxynol 9 [nonoxynol-9] | toxic to aquatic life with long lasting effects |  |
| nonylphenol [nonylphenol (NP)] | extremely toxic to aquatic organisms | exhibit estrogenic properties |
